How the values were obtained:
5-HT2A receptor [1] = molecular target: T1, 5-HT2A receptor (Homo sapiens (Human), UniProt P28223); test: Radioligand binding assay ([3H]5-HT competition), 5-HT2A; details: [3H]5-HT radioligand, membranes of HEK293 cells expressing recombinant 5-HT2A; Ki from IC50 by Cheng-Prusoff; read-out: 5-HT2A serotonin binding Ki value
5-HT2A receptor [2] = molecular target: T1, 5-HT2A receptor; test: HTRF IP-One antagonist assay, 5-HT2A; type: cell-based; details: HEK293 cells stably expressing recombinant human receptor; IP accumulation with 80 nM 5-HT
Protocol: (§1) HEK293 cells stably expressing 5-HT2 receptors were generated using standard procedures. Cells were dilution cloned and clonal cell lines stably expressing the receptors at low levels were selected for pharmacology studies. In radioligand binding studies using a variety of radiolabeled probes, receptor densities in the 2A, 2B and 2C cell lines were estimated to be 50-70, 150-200, and 10-20 fmol/mg, respectively.
(§2) Inositol phosphate accumulation assays were performed using the HTRF IP-One assay system developed by Cisbio and generally followed the manufacturer's instructions. Briefly, HEK293 cells stably expressing recombinant human receptors were harvested and resuspended in phenol-red free OptiMEM (ThermoFisher), plated into 384-well assay plates (Perkin Elmer, ProxiPlate-Plus® Cat #6008280) at 10,000 cells/well in a volume of 10 μL/well, and incubated overnight at 37° C., 5% CO2. Test compounds were solubilized and serially diluted in DMSO, and then diluted into Assay Buffer (Tris HCl 20 mM, NaCl 150 mM, LiCl 40 mM, pargyline 25 μM, pH 8) containing 80 nM 5-HT. Test compounds were added to the cells (4 μL/well addition, maximal final assay concentration typically 10 μM) and plates, incubated for 2 hrs at 37° C./5% CO2 and then removed from the incubator and allowed to cool to room temperature for 30 minutes prior to addition of IP-One detection reagents. IP-One detection reagents (6 μL/well) were added and plates incubated for 1 hr at room temperature before reading on an HTRF compatible reader such as a Perkin Elmer EnVision® or BMG PheraStar®. Dose-response experiments utilized 10-point curves, typically starting at 10 μM, with 5-fold serial dilutions. Experiments were performed with triplicate data points and independent replicate experiments were performed to ensure data consistency.

5-HT2B receptor = 5-HT2B receptor (Homo sapiens (Human), UniProt P41595); test: HTRF IP-One antagonist assay, 5-HT2B; type: cell-based; details: HEK293 cells stably expressing recombinant human receptor; IP accumulation with 80 nM 5-HT
Sequence of 5-HT2B receptor (P41595 whole entry): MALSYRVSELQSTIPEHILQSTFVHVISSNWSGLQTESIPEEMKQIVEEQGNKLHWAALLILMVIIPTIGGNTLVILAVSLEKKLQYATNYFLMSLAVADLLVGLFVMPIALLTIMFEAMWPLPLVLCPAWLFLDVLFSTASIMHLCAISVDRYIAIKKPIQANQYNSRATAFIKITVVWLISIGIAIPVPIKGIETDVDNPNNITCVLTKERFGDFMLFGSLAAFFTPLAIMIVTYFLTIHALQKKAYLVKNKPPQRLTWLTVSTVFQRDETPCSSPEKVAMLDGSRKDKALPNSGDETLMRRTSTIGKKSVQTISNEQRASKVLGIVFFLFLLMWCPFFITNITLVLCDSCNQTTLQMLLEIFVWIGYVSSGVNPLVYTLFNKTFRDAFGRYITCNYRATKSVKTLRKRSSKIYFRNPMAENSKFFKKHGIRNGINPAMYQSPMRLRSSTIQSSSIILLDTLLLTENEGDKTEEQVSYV
Protocol: as §1, §2

5-HT2C receptor = 5-HT2C receptor (Homo sapiens (Human), UniProt P28335); test: HTRF IP-One antagonist assay, 5-HT2C; type: cell-based; details: HEK293 cells stably expressing recombinant human receptor; IP accumulation with 80 nM 5-HT
Sequence of 5-HT2C receptor (P28335 33-458): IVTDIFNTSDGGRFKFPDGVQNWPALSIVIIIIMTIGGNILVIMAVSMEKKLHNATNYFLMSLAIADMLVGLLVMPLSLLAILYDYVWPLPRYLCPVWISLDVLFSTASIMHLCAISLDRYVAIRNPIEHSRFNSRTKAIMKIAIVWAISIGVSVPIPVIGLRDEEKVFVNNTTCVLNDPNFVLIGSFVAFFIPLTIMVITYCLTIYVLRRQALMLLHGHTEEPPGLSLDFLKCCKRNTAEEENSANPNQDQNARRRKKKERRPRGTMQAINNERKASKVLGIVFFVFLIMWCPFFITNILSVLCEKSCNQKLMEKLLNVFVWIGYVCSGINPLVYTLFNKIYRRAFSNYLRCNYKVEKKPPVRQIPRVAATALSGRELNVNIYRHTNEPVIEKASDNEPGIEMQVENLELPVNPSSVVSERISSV
Protocol: as §1, §2

T1 sequence (P28223 whole entry): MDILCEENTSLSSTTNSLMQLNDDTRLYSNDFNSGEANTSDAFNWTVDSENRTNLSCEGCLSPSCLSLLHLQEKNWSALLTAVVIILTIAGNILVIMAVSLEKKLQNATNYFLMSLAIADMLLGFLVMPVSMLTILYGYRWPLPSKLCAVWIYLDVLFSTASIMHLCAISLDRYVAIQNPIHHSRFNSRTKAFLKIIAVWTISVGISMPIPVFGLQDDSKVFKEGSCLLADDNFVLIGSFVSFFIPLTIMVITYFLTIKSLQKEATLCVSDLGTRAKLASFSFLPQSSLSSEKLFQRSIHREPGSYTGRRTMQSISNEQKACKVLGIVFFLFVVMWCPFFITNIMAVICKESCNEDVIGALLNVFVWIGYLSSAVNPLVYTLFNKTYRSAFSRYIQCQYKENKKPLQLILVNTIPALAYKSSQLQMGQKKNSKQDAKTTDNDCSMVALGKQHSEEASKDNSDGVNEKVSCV

Structure (SMILES) | Ki (5-HT2A receptor [1]) | IC50 (5-HT2A receptor [2]) | IC50 (5-HT2B receptor) | IC50 (5-HT2C receptor)
Cc1noc(C)c1-c1cc(NC(=O)c2ccccc2)ccc1OC[C@H]1CCCCN1 [Compound 218, (R)—N-(3-(3,5-dimethylisoxazol-4-yl)-4-(piperidin-2-ylmethoxy)phenyl)benzamide] | 4.85 nM | 21.8 nM | ≥ 100000 nM | ≥ 100000 nM
Cc1nscc1C(=O)Nc1ccc(OC[C@H]2CCCCN2)c(-c2c(C)noc2C)c1 [Compound 187, (R)—N-(3-(3,5-dimethylisoxazol-4-yl)-4-(piperidin-2-ylmethoxy)phenyl)-3-methylisothiazole-4-carboxamide] | 4.01 nM | 36.2 nM | ≥ 100000 nM | ≥ 100000 nM
Cc1noc(C)c1-c1cc(NC(=O)C2CC2)ccc1OCCN1CCC2(CCC(=O)O2)CC1 [Compound 141, N-(3-(3,5-dimethylisoxazol-4-yl)-4-(2-(2-oxo-1-oxa-8-azaspiro[4.5]decan-8-yl)ethoxy)phenyl)cyclopropanecarboxamide] | 9.47 nM | 49.7 nM | ≥ 100000 nM | ≥ 100000 nM
Cc1ncoc1C(=O)Nc1ccc(OC[C@H]2CCCCN2)c(-c2c(C)noc2C)c1 [Compound 196, (R)—N-(3-(3,5-dimethylisoxazol-4-yl)-4-(piperidin-2-ylmethoxy)phenyl)-4-methyloxazole-5-carboxamide] | 10.2 nM | 45 nM | ≥ 100000 nM | ≥ 100000 nM
Cc1ncsc1C(=O)Nc1ccc(OCCN2CCC2)c(-c2c(C)noc2C)c1 [Compound 119, N-(4-(2-(azetidin-1-yl)ethoxy)-3-(3,5-dimethylisoxazol-4-yl)phenyl)-4-methylthiazole-5-carboxamide] | 9.58 nM | 13 nM | ≥ 100000 nM | ≥ 100000 nM
CC(=N)NCCOc1ccc(NC(=O)C2CC2)cc1-c1c(C)noc1C [Compound 198, N-(4-(2-acetimidamidoethoxy)-3-(3,5-dimethylisoxazol-4-yl)phenyl)cyclopropanecarboxamide] | 5.39 nM | 22.8 nM | ≥ 100000 nM | 3730 nM
Cc1noc(C)c1-c1cc(NC(=O)c2cccn2C)ccc1OC[C@H]1CCCCN1 [Compound 189, (R)—N-(3-(3,5-dimethylisoxazol-4-yl)-4-(piperidin-2-ylmethoxy)phenyl)-1-methyl-1H-pyrrole-2-carboxamide] | 3.92 nM | 24.9 nM | ≥ 100000 nM | ≥ 100000 nM
Cc1noc(C)c1-c1cc(NC(=O)C2CC2)ccc1OCCN1CCC(O)CC1 [Compound 146, N-(3-(3,5-dimethylisoxazol-4-yl)-4-(2-(4-hydroxypiperidin-1-yl)ethoxy)phenyl)cyclopropanecarboxamide] | 5.08 nM | 15.7 nM | ≥ 100000 nM | ≥ 100000 nM
Cc1noc(C)c1-c1cc(NC(=O)Cc2cncc(F)c2)ccc1OC[C@H]1CCCCN1 [Compound 226, (R)—N-(3-(3,5-dimethylisoxazol-4-yl)-4-(piperidin-2-ylmethoxy)phenyl)-2-(5-fluoropyridin-3-yl)acetamide] | 10.4 nM | 10.9 nM | ≥ 100000 nM | ≥ 100000 nM
Cc1nonc1C(=O)Nc1ccc(OC[C@H]2CCCCN2)c(-c2c(C)noc2C)c1 [Compound 232, (R)—N-(3-(3,5-dimethylisoxazol-4-yl)-4-(piperidin-2-ylmethoxy)phenyl)-4-methyl-1,2,5-oxadiazole-3-carboxamide] | 3.86 nM | 24.8 nM | ≥ 100000 nM | ≥ 100000 nM
Cc1noc(C)c1-c1cc(NC(=O)c2ccccc2)ccc1OC1CNC1 [Compound 241, N-(4-(azetidin-3-yloxy)-3-(3,5-dimethylisoxazol-4-yl)phenyl)benzamide] | 6.94 nM | 35 nM | ≥ 100000 nM | ≥ 100000 nM
Cc1noc(C)c1-c1cc(NC(=O)C2(F)CC2)ccc1OCCN1CCC1 [Compound 117, N-[4-[2-(azetidin-1-yl)ethoxy]-3-(3,5-dimethylisoxazol-4-yl)phenyl]-1-fluoro-cyclopropanecarboxamide] | 10.3 nM | 20.6 nM | ≥ 100000 nM | ≥ 100000 nM
COCCNCCOc1ccc(NC(=O)C2CC2)cc1-c1c(C)noc1C [Compound 197, N-[3-(3,5-dimethylisoxazol-4-yl)-4-[2-(2-methoxyethylamino)ethoxy]phenyl]cyclopropanecarboxamide] | 1.08 nM | 4.95 nM | ≥ 100000 nM | ≥ 100000 nM
COc1cccc(CC(=O)Nc2ccc(OC[C@H]3CCCCN3)c(-c3c(C)noc3C)c2)c1 [Compound 222, (R)—N-(3-(3,5-dimethylisoxazol-4-yl)-4-(piperidin-2-ylmethoxy)phenyl)-2-(3-methoxyphenyl)acetamide] | 4.68 nM | 53.4 nM | ≥ 100000 nM | ≥ 100000 nM
CO[C@H]1CCN(CCOc2ccc(NC(=O)C3CC3)cc2-c2c(C)noc2C)C1 [Compound 144, (S)—N-(3-(3,5-dimethylisoxazol-4-yl)-4-(2-(3-methoxypyrrolidin-1-yl)ethoxy)phenyl)cyclopropanecarboxamide] | 14.9 nM | 85.5 nM | ≥ 100000 nM | ≥ 100000 nM

More lines, now with the values ahead:

Ki (5-HT2A receptor [1]) | IC50 (5-HT2A receptor [2]) | IC50 (5-HT2B receptor) | IC50 (5-HT2C receptor) | Structure (SMILES)
2.92 nM | 10.4 nM | ≥ 100000 nM | ≥ 100000 nM | Cc1noc(C)c1-c1cc(NC(=O)c2ccc(F)cc2)ccc1OC[C@H]1CCCCN1 [Compound 219, (R)—N-(3-(3,5-dimethylisoxazol-4-yl)-4-(piperidin-2-ylmethoxy)phenyl)-4-fluorobenzamide]
1.69 nM | 14.7 nM | ≥ 100000 nM | ≥ 100000 nM | Cc1noc(C)c1-c1cc(NC(=O)Cc2cccc(F)c2)ccc1OC[C@H]1CCCCN1 [Compound 223, (R)—N-(3-(3,5-dimethylisoxazol-4-yl)-4-(piperidin-2-ylmethoxy)phenyl)-2-(3-fluorophenyl)acetamide]
2.05 nM | 37.9 nM | ≥ 100000 nM | ≥ 100000 nM | Cc1noc(C)c1-c1cc(NC(=O)C2(F)CC2)ccc1OC1CNC1 [Compound 245, N-(4-(azetidin-3-yloxy)-3-(3,5-dimethylisoxazol-4-yl)phenyl)-1-fluorocyclopropane-1-carboxamide]
1.64 nM | 9.5 nM | ≥ 100000 nM | ≥ 100000 nM | Cc1noc(C)c1-c1cc(NC(=O)Cc2ccns2)ccc1OC[C@H]1CCCCN1 [Compound 233, (R)—N-(3-(3,5-dimethylisoxazol-4-yl)-4-(piperidin-2-ylmethoxy)phenyl)-2-(isothiazol-5-yl)acetamide]
1.36 nM | 17.8 nM | ≥ 100000 nM | ≥ 100000 nM | Cc1noc(C)c1-c1cc(NC(=O)c2c(F)cnn2C)ccc1OC1CNC1 [Compound 240, N-(4-(azetidin-3-yloxy)-3-(3,5-dimethylisoxazol-4-yl)phenyl)-4-fluoro-1-methyl-1H-pyrazole-5-carboxamide]
0.657 nM | 2.39 nM | ≥ 100000 nM | ≥ 100000 nM | Cc1noc(C)c1-c1cc(NC(=O)Cc2cnsc2)ccc1OC[C@H]1CCCCN1 [Compound 234, (R)—N-(3-(3,5-dimethylisoxazol-4-yl)-4-(piperidin-2-ylmethoxy)phenyl)-2-(isothiazol-4-yl)acetamide]
2.16 nM | 13 nM | ≥ 100000 nM | ≥ 100000 nM | Cc1noc(C)c1-c1cc(NC(=O)C2CC2)ccc1OC[C@H]1CCCCN1 [Compound 169, N-[3-(3,5-dimethylisoxazol-4-yl)-4-[[(2R)-2-piperidyl]methoxy]phenyl]cyclopropanecarboxamide]
2.66 nM | 8.95 nM | ≥ 100000 nM | ≥ 100000 nM | Cc1noc(C)c1-c1cc(NC(=O)C2(F)CC2)ccc1OCCN1CCCC1 [Compound 113, N-[3-(3,5-dimethylisoxazol-4-yl)-4-(2-pyrrolidin-1-ylethoxy)phenyl]-1-fluoro-cyclopropanecarboxamide]
3.61 nM | 45.2 nM | ≥ 100000 nM | ≥ 100000 nM | Cc1noc(C)c1-c1cc(NC(=O)C2(F)CC2)ccc1O[C@@H]1CCNC1 [Compound 238, (R)—N-(3-(3,5-dimethylisoxazol-4-yl)-4-(pyrrolidin-3-yloxy)phenyl)-1-fluorocyclopropane-1-carboxamide]
0.85 nM | 19 nM | ≥ 100000 nM | ≥ 100000 nM | COc1cccc(C(=O)Nc2ccc(OC3CNC3)c(-c3c(C)noc3C)c2)c1 [Compound 244, N-(4-(azetidin-3-yloxy)-3-(3,5-dimethylisoxazol-4-yl)phenyl)-3-methoxybenzamide]

From patent publication US20240376090A1, “ISOXAZOLE DERIVATIVES AS MODULATORS OF THE 5-HT2A SEROTONIN RECEPTOR USEFUL FOR THE TREATMENT OF DISORDERED RELATED THERETO” (Arena Pharmaceuticals, Inc., priority 2020, published 2024)
